{
  "source": "patent US12691083B2",
  "about": "“Pharmaceutical composition for preventing or treating attention deficit/hyperactivity disorder, containing KDS2010 as active ingredient” (DANKOOK UNIVERSITY CHEONAN CAMPUS INDUSTRY ACADEMIC …, priority 2021, dated 2026)",
  "assay_type_in_all_cases": "in vivo",
  "key": {"[1]": {"test_system": "Git1 hetero type (+/−) mice", "assay": "Self-grooming test", "conditions": "Git1 hetero type (+/−) mice administered KDS2010; recorded for 10 minutes; compared with wild type (+/+); FIG. 5", "description": "(§1) The KDS2010 was orally administered at a concentration of 10 mg/kg per day. The amount (mg) of each drug was calculated according to the weight (kg) of each mouse, followed by dissolution in 100 μL of drinking water. Oral administration was performed once a day. The daily amount of water consumed by adult mice older than 7 weeks was administered at a calculated dose of […]. The drug was administered 3 days prior to passive avoidance, and the drug administration was continued during the passive avoidance test. KDS2010 is an inhibitor against monoamine oxidase B (MAOB) and may reduce GABA levels that are increased in astrocytes of the hippocampus.\nFor a self-grooming test, mice were placed in a plastic cylinder with a diameter of 15 cm and a height of 35 cm. In the plastic cylinder, mice were habituated for about 20 minutes, and then self-grooming behavior was recorded for 10 minutes. The duration of the self-grooming behavior was checked through the recorded video, and if there was an interval of 5 seconds, it was measured as different self-grooming. The number of each different self-grooming behavior was expressed as each different self-grooming bout."}, "[2]": {"test_system": "Git1 gene-deficient hetero (+/−) mice", "assay": "Passive avoidance test (fear memory learning ability)", "conditions": "Git1 hetero type (+/−) mice, KDS2010 orally 10 mg/kg per day", "description": "The hippocampus, one of the regions that affects ADHD, is responsible for functions related to learning and memory. In order to evaluate the effect of ameliorating ADHD upon administration of KDS2010, KDS2010 was administered to Git1 gene-deficient hetero (+/−) mice, an animal model with ADHD, and a passive avoidance test that enables evaluation on a fear memory learning ability in relation to the function of the dentate gyrus in the hippocampus was conducted. The passive avoidance test was performed using a common passive avoidance test device which was a shuttle box divided into two rooms, one of which was equipped with a bright light bulb to create a bright environment that the laboratory animals dislike, while the other room was designed not to allow light to enter such that the laboratory animals may feel comfortable. […] Immediately thereafter, after 24 hours and after 48 hours, the latency time of entering a dark room without an electric shock is measured up to 90 seconds (retention tests 1, 2, and 3).\nThe KDS2010 was orally administered at a concentration of 10 mg/kg per day. The amount (mg) of each drug was calculated according to the weight (kg) of each mouse, followed by dissolution in 100 μL of drinking water. […] The daily amount of water consumed by adult mice older than 7 weeks was administered at a calculated dose of 10 ml/day. […]"}, "[3]": {"test_system": "Git1 hetero type (+/−) mice", "assay": "Open field test (hyperactivity, locomotor activity)", "conditions": "Git1 hetero type (+/−) mice administered KDS2010; movement measured for 10 minutes; FIG. 4", "description": "as §1\nADHD is diagnosed based on two main tendencies including a hyperactive type and an inattention type, but the two symptoms don't necessarily occur together. From this point of view, hyperactivity-related abilities should not be impaired in the course of treatment for inattention, which has been determined through an open field test that enables measurement of hyperactivity.\nAn open field test was performed to assess whether there is a behavioral improvement. […] The mice were placed in the center of an open field test cage (30×30×30 cm), and its movement was measured for 10 minutes. The measured videos were analyzed for locomotor activity through ANYmaze."}},
  "data": [
    {"smiles": "C[C@H](NCc1ccc(-c2ccc(C(F)(F)F)cc2)cc1)C(N)=O", "note": "[KDS2010, (S)-2-(((4′-(trifluoromethyl)-[1,1′-biphenyl]-4-yl)methyl)amino)propenamide]", "values": [
      {"measurement": "self-grooming duration", "setting": "[1]", "value": "decrease to a value similar to the wild type (+/+) mice"},
      {"measurement": "fear memory learning ability", "setting": "[2]; from 3 days prior to and during test, compared with wild type (+/+), FIG. 2", "value": "recovery in the fear memory learning ability, similar to the wild type (+/+) mice"},
      {"measurement": "entry time (time to enter the dark room), retention", "setting": "[2]; retention trial, compared with wild type", "value": "entry time recovered closer to the wild type"},
      {"measurement": "effect on hyperactivity", "setting": "[3]", "value": "no effect was derived on hyperactivity"}
    ]}
  ]
}
